ChEMBL document CHEMBL3132826, “Investigation of a tetrahydroisoquinoline scaffold as dual-action steroid sulfatase inhibitors generated by parallel solid-phase synthesis” (Medchemcomm, 2013)

Legend:
Format in all cases: ADME, cell-based
[1] = Estrogenic activity in human Saos2 cells assessed as increase in alkaline phosphatase activity at 1 nM; conditions: saos-2, 0.001 µM
MCF7 [2] = experiment: Estrogenic activity in human MCF7 cells assessed as cell proliferation at 0.1 uM by MTS assay relative to basal level; conditions: mcf7, 0.1 µM
MCF7 [3] = experiment: Estrogenic activity in human MCF7 cells assessed as cell proliferation at 0.01 uM by MTS assay relative to basal level; conditions: mcf7, 0.01 µM
MCF7 [4] = experiment: Estrogenic activity in human MCF7 cells assessed as cell proliferation at 1 uM by MTS assay relative to basal level; conditions: mcf7, 1 µM
[5] = Estrogenic activity in human Saos2 cells assessed as cell proliferation at 1 uM; conditions: saos-2, 1 µM

Activity [1] | Compound | Activity (MCF7 [2]) | Activity (MCF7 [3]) | Activity (MCF7 [4]) | Activity [5]
147% | CCN(Cc1ccccn1)c1ccc(C(=O)N2CCc3ccc(O)cc3C2)cc1 | 0% | 2.7% | 84% | 140%
133% | CCN(Cc1ccncc1)c1ccc(C(=O)N2CCc3ccc(O)cc3C2)cc1 | 0% | 0% | 0% | Toxic
133% | CCN(Cc1cccnc1)c1ccc(C(=O)N2CCc3ccc(O)cc3C2)cc1 | 2% | 0% | 0% | Toxic
133% | O=C(c1ccc(N2CCc3ccccc3C2)cc1)N1CCc2ccc(O)cc2C1 | 1.7% | 0% | 6.3% | Toxic
152% | CCN(Cc1ccc(F)cc1)c1ccc(C(=O)N2CCc3ccc(O)cc3C2)cc1 | 0% | 0% | 4.8% | Toxic
 | CN(C)CCN(Cc1ccccc1)c1cccc(C(=O)N2CCc3ccc(O)cc3C2)c1 | 7.4% | 4.1% | 30.5% | 
 | CCN(Cc1cccc(Br)c1)c1cccc(C(=O)N2CCc3ccc(O)cc3C2)c1 | 0% | 0% | 8.5% | 
 | CCN(Cc1ccc(F)cc1)c1cccc(C(=O)N2CCc3ccc(O)cc3C2)c1 | 31.9% | 9.5% | 101.3% | 
 | CCN(Cc1ccc(Br)cc1)c1cccc(C(=O)N2CCc3ccc(O)cc3C2)c1 | 0% | 0% | 5.5% | 
 | CCCN(Cc1ccccc1)c1ccc(C(=O)N2CCc3ccc(O)cc3C2)cc1 | 0% | 0% | 8.9% | 
 | O=C(c1cccc(N(CCO)Cc2ccccc2)c1)N1CCc2ccc(O)cc2C1 | 3% | 0.5% | 12% | 
 | CN(C)CCN(CCN(C)C)c1ccc(C(=O)N2CCc3ccc(O)cc3C2)cc1 | 0% | 0% | 4.5% | 
 | CCN(Cc1cccc(Br)c1)c1ccc(C(=O)N2CCc3ccc(O)cc3C2)cc1 | 0% | 1.8% | 18.3% | 
143% | CC/C(=C(\c1ccccc1)c1ccc(OCCN(C)C)cc1)c1ccccc1 [TAMOXIFEN] |  |  |  | 
 | O=C(c1cccc(N(Cc2ccccc2)Cc2ccco2)c1)N1CCc2ccc(O)cc2C1 | 63.3% | 44.9% | 80.7% | 
 | CN(C)CCN(Cc1ccccc1)c1ccc(C(=O)N2CCc3ccc(O)cc3C2)cc1 | 6.3% | 9.6% | 4.6% | 
 | O=C(c1ccc(N(CCCO)Cc2ccccc2)cc1)N1CCc2ccc(O)cc2C1 | 0% | 0% | 4% | 
 | CCN(Cc1ccc(Br)cc1)c1ccc(C(=O)N2CCc3ccc(O)cc3C2)cc1 | 10.6% | 0% | 76.7% | 
 | CN(CCCN1CCCCC1)c1cccc(C(=O)N2CCc3ccc(O)cc3C2)c1 | 2.5% | 2.9% | 19% | 
 | CN(CCN1CCCCC1)c1ccc(C(=O)N2CCc3ccc(O)cc3C2)cc1 | 4.6% | 2.1% | 12.2% | 
 | O=C(c1ccc(N(CCO)Cc2ccccc2)cc1)N1CCc2ccc(O)cc2C1 | 14.8% | 8.4% | 34.6% | 
 | O=C(c1cccc(N2CCc3ccccc3C2)c1)N1CCc2ccc(O)cc2C1 | 0% | 0% | 14.7% | 
 | CCN(Cc1ccncc1)c1cccc(C(=O)N2CCc3ccc(O)cc3C2)c1 | 0% | 6% | 12.8% | 
 | CN(C)CCCN(Cc1ccccc1)c1cccc(C(=O)N2CCc3ccc(O)cc3C2)c1 | 0% | 0% | 5.4% | 
